Assay results: article PMC5141568 (ACS Medicinal Chemistry Letters, 2015)
Entries after “also recorded” stand apart in the source; their conditions may differ.

molecular target: T1, Naegleria Tet1 (NgTet1) (Naegleria gruberi, UniProt D2W6T1); experiment: FP competitive binding assay; conditions: 2.5 and 1.25 mM
T1 sequence (D2W6T1 1-321): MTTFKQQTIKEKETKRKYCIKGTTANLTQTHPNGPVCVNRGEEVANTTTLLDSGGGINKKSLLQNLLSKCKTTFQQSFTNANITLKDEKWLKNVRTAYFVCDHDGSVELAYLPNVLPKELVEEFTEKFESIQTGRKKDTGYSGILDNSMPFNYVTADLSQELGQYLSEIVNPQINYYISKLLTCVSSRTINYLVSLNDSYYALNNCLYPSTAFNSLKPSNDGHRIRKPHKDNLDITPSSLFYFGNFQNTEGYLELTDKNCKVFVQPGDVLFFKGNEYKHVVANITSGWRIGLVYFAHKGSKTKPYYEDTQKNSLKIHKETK

Row | Structure (SMILES) | inhibition at the highest concentrations tested
1 | O=C(O)CC[C@@H](O)C(=O)O [compound 7, D-2-hydroxyglutaric acid] | very slight inhibition

same assay, conditions: at the concentrations tested (up to 5.0 mM for 8 and 9)

Row | Structure (SMILES) | competitive displacement of 3 from NgTet1
2 | O=C(O)CCC(=O)C(=O)O [compound 4, α-ketoglutarate] | showed the ability to competitively displace 3
3 | O=C(O)CNC(=O)C(=O)O [compound 5, N-oxalyl glycine] | showed the ability to competitively displace 3
4 | O=C(O)c1ccnc(C(=O)O)c1 [compound 6, pyridine 2,4-dicarboxylic acid] | showed the ability to competitively displace 3
5 | Cc1cn([C@H]2C[C@H](O)[C@@H](CO)O2)c(=O)nc1N [compound 8, 5-methyl-2'-deoxycytidine] | Neither 5mC (8) nor 5hmC (9) showed competitive binding; also recorded: unable to competitively displace 3
6 | Nc1nc(=O)n([C@H]2C[C@H](O)[C@@H](CO)O2)cc1CO [compound 9, 2'-deoxy-5-(hydroxymethyl)cytidine] | Neither 5mC (8) nor 5hmC (9) showed competitive binding; also recorded: unable to competitively displace 3
